According to patent US20070191330A1, “Polyhydroxylated aromatic compounds for the treatment of amyloidosis and alpha-synuclein fibril diseases” (Proteotech, Inc., priority 1999, published 2007):
Where two headings read alike, the source gives them in different places. Values belong to the compound of their own block, whether it stands above or below them.

What was measured:
Type in all cases: biochemical
[1] = target: T1, Alzheimer's Aβ 1-42 amyloid fibrils (Homo sapiens, UniProt P05067); experiment: Disassembly/disruption of pre-formed Aβ 1-42 fibrils, Thioflavin T fluorometry; conditions: for inhibition at 100 µg/mL: read-out: Fluorescence inhibition, %, at the Aβ 1-42:compound w/w ratio 1:1
T1 construct: 1 mg of Aβ 1-42 (Bachem Inc., Torrance, Calif., USA) was dissolved; purchased Bachem Inc., Torrance, Calif., USA
T1 sequence (P05067 672-713): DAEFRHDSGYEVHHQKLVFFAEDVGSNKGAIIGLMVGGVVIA
Procedure: For the first study, 1 mg of Aβ 1-42 (Bachem Inc., Torrance, Calif., USA) was dissolved in 1.0 ml of double distilled water (1 mg/ml solution). 25 μM of Aβ 1-42 was then incubated overnight (˜18 hours) at 37° C., in the absence or presence of 100 μg/ml of the following compounds: 1) EDTA (Sigma Chemical Company, St. Louis, Mo., USA), 2) myricetin (Acros, Somerville, N.J., USA), 3) exifone (Acros) 4) pyrogallol (Sigma), 5) tannic acid (Acros), 6) pyrocatechol (Acros), 7) quercetin (Sigma), 8) ellagic acid (Acros), 9) 1,2,4-benzenetriol (Acros), 10) 5-hydroxydopamine (Acros), 11) gallamide hydrate (Acros), 12) gallic acid (Sigma), 13) ethyl gallate (Acros), 14) quinic acid (Acros), 15) propyl gallate (Sigma), and 16) phloroglucide (Acros), each in the presence of 150 mM Tris HCl, 10 mM NaCl (pH 7.0) with 0.02% sodium azide. In this study, the A 1-42:compound weight ratio was 1:1. […]
Thioflavin T is known to bind to fibrillar amyloid proteins, and an increase in fluorescence correlates with an increase in amyloid fibril formation, whereas a decrease in fluorescence correlates with a decrease in amyloid fibrils due to disassembly and/or disruption. The Alzheimer's Aβ protein (1-42) when placed in solution, such as distilled water, tends to spontaneously form amyloid fibrils. Using this sensitive assay, any decreases or increases in fluorescence was previously shown to correlate with a decrease or increase in the amount of amyloid fibrils (see the documents cited above), allowing one to identify and quantitate the extent of potential inhibitors and/or enhancers of Alzheimer's Aβ 1-42 amyloid fibrils.
To assess the effects of each compound on potential disassembly/disruption of preformed Aβ 1-42 fibrils, 50 μl of Aβ 1-42 with or without test compounds (described above) were added to 1.2 ml of 100 μM Thioflavin T (Sigma) in 50 mM NaH2PO4 (pH 6.0) for fluorometry readings. […] Fluorescence emission at 482 nm was measured on a Turner instrument-model 450 fluorometer at an excitation wavelength of 450 nm. For each determination, the fluorometer was calibrated by zeroing in the presence of the Thioflavin T reagent alone, and by setting the 50 ng/ml riboflavin (Sigma Chemical Co., St. Louis, Mo.) in the Thioflavin T reagent to 1800 fluorescence units. All fluorescence determinations were based on these references and any fluorescence given off by any of the compounds in the presence of the Thioflavin T reagent was always subtracted from all pertinent readings.
For all fibrillogenesis studies utilizing Thioflavin T fluorometry, as disclosed herein, comparisons of amyloid protein in the presence or absence of test compounds were based on paired Student's t tests with data shown as the mean of triplicate measurements±standard deviation.

human amylin fibrils = target: T2, human amylin fibrils (Homo sapiens, UniProt P10997); experiment: Congo red staining of amylin fibrils on slides; conditions: overnight incubation of amylin with compound, compared with amylin alone
T2 construct: This amyloid protein involved consists of a 37 amino acid protein known as islet amyloid polypeptide or amylin; purchased Bachem
T2 sequence (P10997 34-70 limits assumed): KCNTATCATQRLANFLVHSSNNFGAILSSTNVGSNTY
Procedure: Following Thioflavin T fluorometry readings as described in Example 1, 5 μl aliquots of amylin only, amylin+myricetin, amylin+exifone, and amylin+tannic acid were also taken, allowed to air dry overnight on gelatin-coated slides, and stained with Congo red as previously described (Castillo et al., Diabetes 47:612-620, 1998).

Aβ 1-40 amyloid fibrils = target: T3, Aβ 1-40 amyloid fibrils (Homo sapiens, UniProt P05067); experiment: Dose-dependent disaggregation of fibrillized Aβ 1-40, Congo red-Aβ spectrophotometric assay; conditions: w/w 1:1, 100 μg/ml compound, 25 μM Aβ 1-40, overnight (~18 hours) at 37° C.
T3 construct: 1 mg of Aβ 1-40 (Bachem Inc., Torrance, Calif., USA; Lot # T-20824) was dissolved; purchased Bachem Inc., Torrance, Calif., USA
T3 sequence (P05067 672-711): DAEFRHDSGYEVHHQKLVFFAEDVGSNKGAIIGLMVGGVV
Procedure: In this study, a Congo red-Aβ spectrophotometric assay (Klunk et al., Anal. Biochem. 266:66-76, 1999) was modified to determine the effectiveness of polyhydroxylated aromatic compounds on the disaggregation of pre-formed Aβ 1-40 amyloid fibrils. For this assay, 1 mg of Aβ 1-40 (Bachem) was incubated for 4 days in distilled water at 37° C. to spontaneously produce amyloid fibrils. […] Following incubation, 50 μl of 360 μM Congo red (Sigma) in distilled water was then added to 250 μl of each incubation mixture, giving a final Aβ:Congo red molar ratio of 1:3. After 10 minutes, the absorbance at 405 nm (reference wavelength to account for the absorbance of Congo red alone at 540 nm) and 540 nm (sample absorbance where “sample” refers to Aβ alone, test compound alone, or Aβ plus test compound, all in the presence of Congo red) was determined using a Biorad Model 550 ELISA Plate Reader (Biorad, Hercules, Calif., USA). The absorbance at wavelength 405 nm was automatically subtracted by the ELISA plate reader from the absorbance at wavelength 540 nm (difference is referred to as A absorbance)(see Klunk et al. cited above). Therefore, the A absorbance reading at 540 nm was proportional to the amount of aggregated Aβ left in solution (Klunk et al.). […]
In this study, the potential dose-dependent effects of tannic acid and gallic acid on the disaggregation of fibrillized Aβ 1-40 was assessed. […]

[2] = Aβ 1-42:compound w/w 1:1, 100 μg/ml compound, 25 μM Aβ 1-42, overnight (~18 hours) at 37° C., mean of triplicate ± SD

Disassembly/disruption of Aβ 1-42 amyloid fibrils (result in words) ([1]; 100 μg/ml, 25 μM Aβ 1-42, overnight (~18 hours) at 37° C., Thioflavin T fluorometry): no significant disassembly/disruption
Compound: O=C(O)CN(CCN(CC(=O)O)CC(=O)O)CC(=O)O [EDTA, reference compound]

Compound: O=c1c(O)c(-c2cc(O)c(O)c(O)c2)oc2cc(O)cc(O)c12 [Myricetin, myricetin]
inhibition at 100 µg/mL ([1]; 18 h): 94 ± 0.9%
Congo red staining of amylin fibrils (red/green birefringence under polarized light) (human amylin fibrils): marked decrease in Congo red staining

Compound: O=c1c(O)c(-c2ccc(O)c(O)c2)oc2cc(O)cc(O)c12 [Quercetin, quercetin]
Fluorescence inhibition, %, at the Aβ 1-42:compound w/w ratio 1:1 [1, 2]: 76 ± 0.6%

inhibition at 100 µg/mL [1, 2]: 49 ± 0.8%
Compound: CCOC(=O)c1cc(O)c(O)c(O)c1 [Ethyl gallate, ethyl gallate]

inhibition at 100 µg/mL [1, 2]: 29 ± 2.8%
Compound: CCCOC(=O)c1cc(O)c(O)c(O)c1 [Propyl gallate, propyl gallate]

Compound: NC(=O)c1cc(O)c(O)c(O)c1 [Gallamide trihydrate, gallamide trihydrate]
inhibition at 100 µg/mL ([1]; 18 h): 65 ± 12.3%

inhibition at 100 µg/mL [1, 2]: 74 ± 1.4%
Compound: O=c1oc2c(O)c(O)cc3c(=O)oc4c(O)c(O)cc1c4c23 [Ellagic acid, ellagic acid]

Compound: O=C(OC[C@H]1O[C@@H](OC(=O)c2cc(O)c(O)c(OC(=O)c3cc(O)c(O)c(O)c3)c2)[C@H](OC(=O)c2cc(O)c(O)c(OC(=O)c3cc(O)c(O)c(O)c3)c2)[C@@H](OC(=O)c2cc(O)c(O)c(OC(=O)c3cc(O)c(O)c(O)c3)c2)[C@@H]1OC(=O)c1cc(O)c(O)c(OC(=O)c2cc(O)c(O)c(O)c2)c1)c1cc(O)c(O)c(OC(=O)c2cc(O)c(O)c(O)c2)c1 [Tannic acid, tannic acid]
inhibition at 100 µg/mL ([1]; 18 h): 77 ± 1.3%
Congo red staining of amylin fibrils (red/green birefringence under polarized light) (human amylin fibrils): marked decrease in Congo red staining

inhibition at 100 µg/mL [1, 2]: 89 ± 6.7%
Compound: Oc1cccc(O)c1O [Pyrogallol, pyrogallol]

Compound: O=C(c1cc(O)c(O)c(O)c1)c1ccc(O)c(O)c1O [Exifone, exifone]
inhibition at 100 µg/mL ([1]; 18 h): 93 ± 1.4%
Congo red staining of amylin fibrils (red/green birefringence under polarized light) (human amylin fibrils): marked decrease in Congo red staining

inhibition at 100 µg/mL [1, 2]: 31 ± 9%
Compound: O=C(O)[C@]1(O)C[C@@H](O)[C@@H](O)[C@H](O)C1 [Quinic acid, quinic acid]

Compound: NCCc1cc(O)c(O)c(O)c1 [5-Hydroxydopamine, 5-hydroxydopamine]
inhibition at 100 µg/mL [1, 2]: 70 ± 1.1%

inhibition at 100 µg/mL [1, 2]: 57 ± 1.9%
Decrease in absorbance, %, at the Aβ 1-40:compound w/w ratio 1:1 (Aβ 1-40 amyloid fibrils): 32 ± 4.8%
Compound: O=C(O)c1cc(O)c(O)c(O)c1 [Gallic acid, gallic acid]

Compound: Oc1ccccc1O [Pyrocatechol, pyrocatechol]
inhibition at 100 µg/mL [1, 2]: 77 ± 2.6%

Compound: Oc1ccc(O)c(O)c1 [1,2,4-Benzenetriol, 1,2,4-benzenetriol]
inhibition at 100 µg/mL [1, 2]: 71 ± 3.3%
